The test system of the experiment is Pseudomonas aeruginosa FP 1380. As to the kind of experiment: In vitro antibacterial activity (MIC) by two-fold agar-plate dilution method. Type of experiment: cell-based. As to conditions: FP1380; test strain Pseudomonas aeruginosa FP 1380; heart infusion agar, incubation at 37° C. for 20 hours. The method, then: Now in order to show the utility of the object compound [I], the test data on MIC (minimal inhibitory concentration) of a representative compound of this invention are shown in the following.
In vitro antibacterial activity was determined by the two-fold agar-plate dilution method as described below.
One loopful of an overnight culture of each test strain in Trypticase-soy broth (10^6 viable cells per ml) was streaked on heart infusion agar (HI-agar) containing graded concentrations of representative test compound, and the minimal inhibitory concentration (MIC) was expressed in μg/ml after incubation at 37° C. for 20 hours.

Values after ≈ are worked out from the molar mass of the structure shown.

Molecule `Cn1c(N)c(NC(=O)N(CCN)CCN)c[n+]1CC1=C(C(=O)[O-])N2C(=O)[C@@H](NC(=O)/C(=N\OC(C)(C)C(=O)O)c3nsc(N)n3)[C@H]2SC1` [Compound (a), 7β-[(Z)-2-(5-amino-1,2,4-thiadiazol-3-yl)-2-(1-carboxy-1-methylethoxyimino)acetamido]-3-{3-amino-4-({[bis(2-aminoethyl)amino]carbonyl}amino)-2-methyl-1-pyrazolio}methyl-3-cephem-4-carboxylate] yielded an MIC of 1 µg/mL (≈ 1.41 µM).

Turning to `Cn1c(N)c(NC(=O)N(CCN)CCCN)c[n+]1CC1=C(C(=O)[O-])N2C(=O)[C@@H](NC(=O)/C(=N\OC(C)(C)C(=O)O)c3nsc(N)n3)[C@H]2SC1` [Compound (c), 7β-[(Z)-2-(5-amino-1,2,4-thiadiazol-3-yl)-2-(1-carboxy-1-methylethoxyimino)acetamido]-3-[3-amino-4-({[N-(2-aminoethyl)-N-(3-aminopropyl)amino]carbonyl}-amino)-2-methyl-1-pyrazolio]methyl-3-cephem-4-carboxylate], the MIC came to 1 µg/mL (≈ 1.38 µM). The same measure for `CC(C)(O/N=C(\C(=O)N[C@@H]1C(=O)N2C(C(=O)[O-])=C(C[n+]3ccccc3)CS[C@H]12)c1csc(N)n1)C(=O)O` [Ceftazidime, reference compound]: 128 µg/mL (≈ 234 µM); for `Cn1c(N)c(NC(=O)CC(=O)NC(CN)CN)c[n+]1CC1=C(C(=O)[O-])N2C(=O)[C@@H](NC(=O)/C(=N\OC(C)(C)C(=O)O)c3nsc(N)n3)[C@H]2SC1` [Compound (e), 7β-[(Z)-2-(5-amino-1,2,4-thiadiazol-3-yl)-2-(1-carboxy-1-methylethoxyimino)acetamido]-3-{3-amino-4-[(3-{[2-amino-1-(aminomethyl)ethyl]amino}-3-oxopropanoyl)amino]-2-methyl-1-pyrazolio}methyl-3-cephem-4-carboxylate]: 1 µg/mL (≈ 1.36 µM); for `Cn1c(N)c(NC(=O)NC(CN)CN)c[n+]1CC1=C(C(=O)O)N2C(=O)[C@@H](NC(=O)/C(=N\OC(C)(C)C(=O)O)c3nsc(N)n3)[C@H]2SC1.O=S(=O)([O-])O` [Compound (d), 7β-[(Z)-2-(5-amino-1,2,4-thiadiazol-3-yl)-2-(1-carboxy-1-methylethoxyimino)acetamido]-3-(3-amino-4-{3-[2-amino-1-(aminomethyl)ethyl]ureido}-2-methyl-1-pyrazolio)methyl-3-cephem-4-carboxylic acid hydrogensulfate]: 1 µg/mL. The same measure for `Cn1c(N)c(NC(=O)N(CCN)CCN)c[n+]1CC1=C(C(=O)O)N2C(=O)[C@@H](NC(=O)/C(=N\OC(C)(C)C(=O)O)c3nsc(N)n3)[C@H]2SC1.O=S(=O)([O-])O` [Compound (b), 7β-[(Z)-2-(5-amino-1,2,4-thiadiazol-3-yl)-2-(1-carboxy-1-methylethoxyimino)acetamido]-3-{3-amino-4-({[bis(2-aminoethyl)amino]carbonyl}amino)-2-methyl-1-pyrazolio}methyl-3-cephem-4-carboxylic acid hydrogensulfate]: 1 µg/mL.

Usually MIC stands for the least concentration at which growth counts as inhibited. A low value points to inhibition by little substance.
